In publication PMC3949622, “Macrocyclic Pyridyl Polyoxazoles: Structure-Activity Studies of the Aminoalkyl Side-Chain on G-Quadruplex Stabilization and Cytotoxic Activity” (Molecules, 2013):
Where “and” joins values, the source holds several entries; their conditions need not be identical. Equal values may be shown once. Read-outs that look alike come from different tables or passages of the source. Marks after values point to notes of the source that are not given here.

Tests used:
[1] = system: human telomeric sequence d[T2G3(T2AG3)3A] (hTel) quadruplex DNA; details: change in transition temperature of hTel quadruplex DNA; ref [21]; cited from earlier work
Description: Table 1 Effect of various pyridyl polyoxazoles on the thermal stabilities of duplex and quadruplex DNA. | column: hTel -Quadruplex DNA / ΔTtran (°C)^a || The results observed with the hTel quadruplex DNA however, stand in stark contrast with the ST duplex DNA results. In the series of three 4-phenyl substituted analogs compound 8 and 11 strongly stabilize G-quadruplex DNA by 20.5 and 24.6 °C respectively. Compound 8 has the tertiary amine directly connected to the phenyl while in 11 the amine is separated from the phenyl ring by two methylene groups. In contrast, the 3-dimethylaminopropyl analog 12 stabilizes G-quadruplex DNA to a much lesser extent. When the side-chain is attached to the 5-position of the phenyl ring the results are quite dram ...

[2] = system: Salmon testes (ST) duplex DNA; details: change in transition temperature of ST duplex DNA; ref [21]; cited from earlier work
From the text: Table 1 Effect of various pyridyl polyoxazoles on the thermal stabilities of duplex and quadruplex DNA. | column: Salmon Testes Duplex DNA / ΔTtran (°C) ^a

RPMI 8402 cells [3] = details: ref [21], cited from earlier work
From the text: (§1) Table 2 Relative cytotoxic activities. IC50 values (μM) ^a. | column: RPMI 8402 || The development of G-quadruplex stabilizers as a potential new class of anticancer agents hinges on the ability to design compounds that stabilize only G-quadruplexes and not other nucleic acid structures such as duplex or triplex DNA [15]. While a diverse array of compounds have been reported to stabilize G-quadruplex DNA [1], most also have some ability to stabilize duplex DNA. The natural product telomestatin for example, is reported to stabilize G-quadruplex DNA with 70:1 selectivity over duplex DNA [16, 17]. In contrast, the synthetic macrocyclic hexaoxazole HXDV (Figure 1) demonst ...

KB3-1 cells [4] = details: ref [21], cited from earlier work
From the text: as §1, with “KB3-1 wt.” for “RPMI 8402”

[5] = system: human breast cancer xenograft (MDA-MB-435); details: MDA-MB-435 xenograft in athymic nude mice; ref [21]; cited from earlier work
From the text: as §1, with “The” for “Table 2 Relative cytotoxic activities. IC50 values (μM) ^a. | column: RPMI 8402 || The”

RPMI 8402 cells [6] = test: MTT cytotoxicity assay, RPMI 8402; assay type: cell-based, human; details: continuous exposure for four days
Description: (§2) Each N,N-dimethylamino-substituted macrocycle was also evaluated for cytotoxic activity against a human lymphoblastoma RPMI 8402 and a human epidermoid carcinoma KB3-1 cell line (Table 2). The results from these assays are informative about the relationship of structure to cytotoxic activity among the PyPX macrocyclic G-quadruplex stabilizers. […] An explanation for this observation is not clear at this time. The three-carbon analogs 12 and 22 have nearly equivalent activity at both positions, but these longer-chain analogs are generally lower in activity than the two-carbon analogs. Attachment of the dimethylamino group directly to the phenyl ring (8 and 19) leads to compounds having the greatest cytotoxic potency at their respective points of attachment. […] In general analogs that have an even number (0 or 2) of methylene spacer groups are more cytotoxic than those with an odd number. […] Moving the side-chain away from the phenyl ring and onto an oxazole ring also fails to improve cytotoxic activity.
(§3) Cytotoxicity was determined using the MTT-microtiter plate tetrazolinium assay (MTA). The human lymphoblast RPMI 8402 cell line was provided by Dr. Toshiwo Andoh (Aichi Cancer Center Research Institute, Nagoya, Japan). The KB3-1 cell line was obtained from K.V. Chin (The Cancer Institute of New Jersey, New Brunswick, NJ, USA). The cytotoxicity assay was performed using 96-well microtiter plates. Cells were grown in suspension at 37 °C in 5% CO2 and maintained by regular passage in RPMI medium supplemented with 10% heat inactivated fetal bovine serum, L-glutamine (2 mM), penicillin (100 U/mL), and Streptomycin (0.1 mg/mL). For determination of IC50 values, cells were exposed continuously for four days to varying concentrations of drug, and MTT assays were performed at the end of the fourth day. […] All assays were performed at least twice in six replicate wells.

KB3-1 cells [7] = test: MTT cytotoxicity assay, KB3-1; assay type: cell-based, human; details: continuous exposure for four days, means of at least two determinations ± standard deviation, read-out: IC50, KB3-1 wt.
Description: as §2, §3

several tumor cell lines = details: ref [18],[20]; read-out: average IC50 towards several tumor cell lines; cited from earlier work
From the text: as §1, with “The” for “Table 2 Relative cytotoxic activities. IC50 values (μM) ^a. | column: RPMI 8402 || The”

[8] = system: human telomeric sequence d[T2G3(T2AG3)3A] (hTel) quadruplex DNA; test: UV melting of hTel quadruplex DNA (G-quadruplex stabilization); assay type: binding; details: hTel 5 µM strand, drug 20 µM
Description: (§4) Each compound was evaluated for its ability to selectively bind and stabilize G-quadruplex DNA in the presence of K^+ ions (150 mM). Salmon testes (ST) DNA was employed as a model of duplex DNA and the human telomeric sequence d[T2G3(T2AG3)3A], denoted as hTel, was used as a model of quadruplex DNA. This sequence has been shown by Patel and co-workers, to exist as an intramolecular (3 + 1) G-quadruplex in which three strands are oriented in one direction and the fourth is oriented in the opposite direction in K^+ solution [35]. The first-derivative forms of the UV melting profiles for ST DNA and hTel DNA were recorded in the absence and presence of the various macrocycles. The ligand-induced changes, if any, in the transition temperature (Ttran) corresponding to the maxima (for quadruplex DNA) or minima (for duplex DNA) of these first-derivative melting profiles are listed in Table 1 for each macrocycle. With the exception of 8 which has a slight (<1 °C) destabilizing effect, none of the other macrocycles alters the thermal stability of ST duplex DNA to any significant extent and any observed changes in Ttran are within the experimental uncertainty. This observation is consistent with little or no duplex DNA binding by these macrocycles. Similar behavior has been observed for other macrocyclic pyridyl polyoxazoles. Temperature-Dependent Spectrophotometry. Temperature-dependent absorption experiments were conducted on an AVIV Model 14DS Spectrophotometer (Aviv Biomedical, Lakewood, NJ, USA) equipped with a thermoelectrically controlled cell holder. Quartz cells with a path length of 1.0 cm were used for all the absorbance studies. Temperature-dependent absorption profiles were acquired at either 260 nm (for ST duplex DNA) or 295 nm (for hTel quadruplex DNA) with a 5 s averaging time. The temperature was raised in 0.5 °C increments, and the samples were allowed to equilibrate for 1 min at each temperature setting. In the quadruplex melting studies, the hTel concentration was 5 µM in strand (120 μM in nucleotide). When present in these quadruplex studies, the drug concentrations were 20 µM. In the duplex melting studies the ST DNA concentrations were 15 µM base pair (30 μM in nucleotide) and, when present, the drug concentrations were 15 µM. The buffer for all the UV melting experiments contained 10 mM potassium phosphate (pH 7.5) and sufficient KCl (132 mM) to bring the total K^+ concentration to 150 mM. Prior to their use in the UV melting experiments, all nucleic acid solutions were preheated at 90 °C for 5 min and slowly cooled to room temperature over a period of 4 hr.

[9] = system: Salmon testes (ST) duplex DNA; test: UV melting of salmon testes duplex DNA; assay type: binding
Description: as §4

[10] = Water-solubility (qualitative); assay type: physicochemical; details: qualitative statement, method not given
[11] = range given for analogs 1 and 2 together, read-out: IC50 against RPMI 8402 cells
[12] = range given for analogs 1 and 2 together, read-out: IC50 against KB3-1 cells

Q: For CN(C)CCc1cc2cc(c1)CNC(=O)c1coc(n1)-c1coc(n1)-c1cccc(n1)-c1nc(co1)-c1nc(co1)C(=O)NC2 [Compound 2], which “ΔTtran, hTel quadruplex DNA” value [1] is on record?
A: The value was 20.5 °C and 20.5 ^b °C.

Q: And the “ΔTtran, salmon testes duplex DNA” value [2]?
A: Its value is 0 ^b °C.

Q: What about the IC50 (RPMI 8402 cells [3]; [11]) of the same compound?
A: Its IC50 is 90 to 180 nM.

Q: What about the IC50 (RPMI 8402 cells [3]; read-out: IC50, RPMI 8402) of the same compound?
A: The IC50 was 180 nM.

Q: What about the IC50 (KB3-1 cells [4]; [12]) of the same compound?
A: The IC50 was 30 to 40 nM.

Q: What about the IC50 (KB3-1 cells [4]; read-out: IC50, KB3-1 wt.) of the same compound?
A: The IC50 was 40 nM.

Q: And the “%T/C (average tumor volumes of treated/control animals)” value [5]?
A: The value was 27.7%.

Q: Which IC50 (RPMI 8402 cells [3]; [11]) does the source give for NCCc1cc2cc(c1)CNC(=O)c1coc(n1)-c1coc(n1)-c1cccc(n1)-c1nc(co1)-c1nc(co1)C(=O)NC2 [Compound 1] here?
A: Its IC50 is 90 to 180 nM.

Q: What about the IC50 (KB3-1 cells [4]; [12]) of the same compound?
A: Its IC50 is 30 to 40 nM.

Q: With CC(C)[C@@H]1NC(=O)c2coc(n2)-c2coc(n2)-c2coc(n2)[C@H](C(C)C)NC(=O)c2coc(n2)-c2coc(n2)-c2coc1n2 [HXDV, reference compound] as the compound, how does the IC50 (RPMI 8402 cells [6]; means of at least two determinations ± standard deviation) read?
A: The IC50 was 540 ± 120 nM.

Q: What about the IC50 (KB3-1 cells [7]) of the same compound?
A: Its IC50 is 350 ± 80 nM.

Q: What about the “ΔTtran, salmon testes duplex DNA” value [2] of the same compound?
A: Its value is 0 ^b °C.

Q: What about the IC50 (several tumor cell lines) of the same compound?
A: The IC50 was 500 nM.

Q: Which results are given for CN(C)c1ccc2cc1CNC(=O)c1coc(n1)-c1coc(n1)-c1cccc(n1)-c1nc(co1)-c1nc(co1)C(=O)NC2 [Compound 8, Pyridyl tetraoxazole macrocycle with a 4-(N,N-dimethylamino) group on the phenyl ring]?
A: ΔTtran, hTel quadruplex DNA ([8]; change in Ttran induced by compound, UV melting at 295 nm, pH 7.5, K+ 150 mM, uncertainty ± 0.5 °C): 20.5 °C; Ttran, hTel quadruplex DNA ([8]; first-derivative UV melting at 295 nm, 10 mM potassium phosphate pH 7.5, total K+ 150 mM, no drug: 64.6): 85.1 °C; ΔTtran, salmon testes duplex DNA ([9]; change in Ttran induced by compound, UV melting at 260 nm, ST DNA 15 µM base pair, drug 15 µM, pH 7.5, K+ 150 mM, uncertainty ± 0.5 °C): −0.9 °C; Ttran, salmon testes duplex DNA ([9]; first-derivative UV melting at 260 nm, ST DNA 15 µM base pair, drug 15 µM, 10 mM potassium phosphate pH 7.5, total K+ 150 mM, no drug: 86.6): 85.7 °C; destabilizing effect on ST duplex DNA (thermal stability) ([9]; size of the decrease in Ttran): < 1 °C; IC50 (RPMI 8402 cells [6]; single determination): 120 nM; IC50 (KB3-1 cells [7]): 30 nM; water-solubility [10]: significantly less water-soluble
